A word on the EC50: it is the midpoint of the concentration-response curve. One may read the melting point as the temperature of the solid-liquid transition.

One data set has as its target T1, hPPARδ (LBD) (Homo sapiens, UniProt Q03181).
T1 construct: A receptor expression plasmid (pSG5-GAL4-hPPARα or γ or δ (LBD)); GAL4 (fusion partner); expressed in transfected cells; host or cells: CV-1 cells (ATCC)
T1 sequence (Q03181 211-439 limits assumed): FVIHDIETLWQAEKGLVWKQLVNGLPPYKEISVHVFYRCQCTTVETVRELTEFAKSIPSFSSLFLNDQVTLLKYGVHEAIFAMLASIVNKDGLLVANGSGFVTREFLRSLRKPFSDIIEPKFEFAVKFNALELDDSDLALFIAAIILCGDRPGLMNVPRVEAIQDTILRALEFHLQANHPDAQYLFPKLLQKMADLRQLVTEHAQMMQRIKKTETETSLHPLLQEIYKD
Nature of the data set: PPAR activating effect, GAL4-hPPARδ LBD luciferase reporter transfection in CV-1 cells. In kind it is cell-based. Details: activation: dose or concentration left out as unconfirmed.

The next data set addresses T2, hPPARα (LBD) (Homo sapiens, UniProt Q07869).
T2 construct: A receptor expression plasmid (pSG5-GAL4-hPPARα or γ or δ (LBD)); GAL4 (fusion partner); expressed in transfected cells; host or cells: CV-1 cells (ATCC)
T2 sequence (Q07869 239-466 limits assumed): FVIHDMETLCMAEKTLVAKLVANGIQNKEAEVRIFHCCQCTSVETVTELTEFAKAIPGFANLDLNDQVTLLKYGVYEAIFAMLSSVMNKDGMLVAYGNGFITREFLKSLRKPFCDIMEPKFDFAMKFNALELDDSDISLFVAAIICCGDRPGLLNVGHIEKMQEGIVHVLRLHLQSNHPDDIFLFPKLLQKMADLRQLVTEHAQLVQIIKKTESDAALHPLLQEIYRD
Nature of the data set: PPAR activating effect, GAL4-hPPARα LBD luciferase reporter transfection in CV-1 cells. It counts as cell-based. For orientation: Reporter assays use an easily measured gene product as a stand-in for the process of interest.

In a further data set the target is T3, hPPARγ (LBD) (Homo sapiens, UniProt P37231).
T3 construct: A receptor expression plasmid (pSG5-GAL4-hPPARα or γ or δ (LBD)); GAL4 (fusion partner); expressed in transfected cells; host or cells: CV-1 cells (ATCC)
T3 sequence (P37231 238-503 limits assumed): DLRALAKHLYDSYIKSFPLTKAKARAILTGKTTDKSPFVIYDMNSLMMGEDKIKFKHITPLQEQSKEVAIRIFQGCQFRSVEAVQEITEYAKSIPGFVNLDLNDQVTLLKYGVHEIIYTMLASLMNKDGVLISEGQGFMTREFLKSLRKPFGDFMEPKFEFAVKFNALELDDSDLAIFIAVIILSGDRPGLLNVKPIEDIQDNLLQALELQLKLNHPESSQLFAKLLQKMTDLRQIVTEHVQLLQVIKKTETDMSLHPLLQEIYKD
Nature of the data set: PPAR activating effect, GAL4-hPPARγ LBD luciferase reporter transfection in CV-1 cells. In kind it is cell-based.

The mark [1] stands for this setting: CV-1, 40 h, read-out: PPAR activity δ (relative value to control compound).
Where [2] appears, read: Table 26, test compound 10^-7 M, 100% = GW-590735 10^-6 M.
[3] abbreviates: Table 26, test compound 10^-7 M, 100% = Rosiglitazone 10^-5 M.

Turning to `Cc1cc2c(CCc3sc4cc(C(F)(F)F)ccc4c3C(C)C)noc2cc1CCC(=O)O` [Example 21, 3-[3-[2-[3-Isopropyl-6-(trifluoromethyl)benzothiophen-2-yl]-ethyl]-5-methylbenzisoxazol-6-yl]propionic acid], the activation at hPPARδ (LBD) (setting [1]) came out at 94.2%. Moreover, the EC50 at hPPARδ (LBD) (Table 25, CV-1 cells, method of Example 29, read-out: PPAR activity (EC50) δ) is 0.0013 µM; on hPPARα (LBD) (Table 25, CV-1 cells, method of Example 29, read-out: PPAR activity (EC50) α), over 10 µM; on hPPARγ (LBD) (Table 25, CV-1 cells, method of Example 29, read-out: PPAR activity (EC50) γ), over 10 µM. Also, the “selectivity of PPAR δ-activating effect” value at hPPARδ (LBD) (compared with GW-501516, from EC50 α, γ, δ of Table 25) is listed as “superior to that of the GW-501516”. The “PPAR activity α (relative value to control compound)” value on hPPARα (LBD) (Table 24, 100% = GW-590735 10^-6 M, CV-1 cells, approx. 40 h) is reported as “Inactive”. The “PPAR activity γ (relative value to control compound)” value on hPPARγ (LBD) (Table 24, 100% = Rosiglitazone 10^-5 M, CV-1 cells, approx. 40 h) was “Inactive”.
Take `CCCc1c(CCC(=NO)c2cc(C)c(OCC(=O)O)cc2O)sc2cc(C(F)(F)F)ccc12` [Example 23, 5-Hydroxy-4-[1-hydroxyimino-3-[3-propyl-6-(trifluoromethyl)benzothiophen-2-yl]propyl]-2-methyl-phenoxyacetic acid]: on hPPARδ (LBD) (setting [1]), the activation at 0.1 µM stood at 5.1%. Moreover, at hPPARα (LBD) (setting [2]), the “PPAR activity α (relative value to control compound)” value was “Inactive”. Further, at hPPARγ (LBD) (setting [3]), the “PPAR activity γ (relative value to control compound)” value is “Inactive”.
As for `CCCc1c(CCc2noc3cc(N(C)CC(=O)O)c(C)cc23)sc2cc(C(F)(F)F)ccc12` [Example 24, N-[5-Methyl-3-[2-[3-propyl-6-(trifluoromethyl)benzothiophen-2-yl]ethyl]benzisoxazol-6-yl]-N-methylglycine], the melting point lay in the range of 147 to 149 °C. In addition, the activation at 0.1 µM on hPPARδ (LBD) (setting [1]) was 77.2%. Also, the activation at 0.1 µM at hPPARα (LBD) (CV-1, 40 h, Table 26, test compound 10^-7 M, 100% = GW-590735 10^-6 M, read-out: PPAR activity α (relative value to control compound)) was 16.4%. Further, the activation at 0.1 µM at hPPARγ (LBD) (CV-1, 40 h, Table 26, test compound 10^-7 M, 100% = Rosiglitazone 10^-5 M, read-out: PPAR activity γ (relative value to control compound)) is 5.8%.
For `CCCc1c(CCc2noc3cc(OCC(=O)O)c(C)cc23)sc2cc(C(F)(F)F)ccc12` [Example 25, [5-Methyl-3-[2-[3-propyl-6-(trifluoromethyl)benzothiophen-2-yl]ethyl]benzisoxazol-6-yloxy]acetic acid], the activation at 0.1 µM at hPPARδ (LBD) (setting [1]) came out at 87.4%. Besides, the “PPAR activity α (relative value to control compound)” value on hPPARα (LBD) (setting [2]) is reported as “Inactive”. On hPPARγ (LBD) (setting [3]), the “PPAR activity γ (relative value to control compound)” value was “Inactive”.
In the case of `CCCc1c(CCc2noc3cc(CCC(=O)O)c(C)cc23)sc2cc(C(F)(F)F)ccc12` [Example 26, 3-[5-Methyl-3-[2-[3-propyl-6-(trifluoromethyl)benzothiophen-2-yl]ethyl]benzisoxazol-6-yl]propionic acid], the activation at 0.1 µM on hPPARδ (LBD) (setting [1]) worked out at 88.8%. The “PPAR activity α (relative value to control compound)” value at hPPARα (LBD) (setting [2]) is “Inactive”. The “PPAR activity γ (relative value to control compound)” value on hPPARγ (LBD) (setting [3]) is “Inactive”.
`CC(C)c1c(CCc2noc3cc(N(C)CC(=O)O)ccc23)sc2cc(C(F)(F)F)ccc12` [Example 28, N-[3-[2-[3-Isopropyl-6-(trifluoromethyl)benzothiophen-2-yl]ethyl]benzisoxazol-6-yl]-N-methylglycine] had a melting point of 153 to 156 °C. Moreover, the activation at 0.1 µM on hPPARδ (LBD) (setting [1]) stood at 81.3%. In addition, the “PPAR activity α (relative value to control compound)” value on hPPARα (LBD) (setting [2]) was “Inactive”. Further, the “PPAR activity γ (relative value to control compound)” value on hPPARγ (LBD) (setting [3]) is on record as “Inactive”.

These data come from patent US8648208B2, “Activating agent for peroxisome proliferator activated receptor” (Nippon Chemiphar Co. Ltd., priority 2008, dated 2014).
